According to PubChem BioAssay AID2060613 (Molecular Pharmacology Branch, DTP, NCI, 2025):
pIC50: −log10 of the molar value.

Tested on: 233499-124-R-J3-PDC complex spheroid viability
Test: Anticancer human tumor 233499-124-R-J3-PDC patient-derived colon adenocarcinoma cell line growth inhibition [CLK]
Details: for pIC50: curve of first compound; for viability, T/C: stronger effect = lower value; active = viability on the fitted dose curve at most 10% of control; inactive = the rest
Outline: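 Multi-cell-type spheroids combined patient-derived tumor cells with HUVEC endothelial cells and human mesenchymal stem cells. Paired agents were dosed in half-log steps down from about clinical Cmax, or from 10 microM where Cmax was unknown.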

[1] = second compound 0.0316 µM, first compound 0.0316 µM
[2] = second compound 0.0316 µM, first compound 0.1 µM
[3] = second compound 0.0316 µM, first compound 0.316 µM
[4] = second compound 0.0316 µM, first compound 1 µM
[5] = second compound 0.1 µM, first compound 0.0316 µM
[6] = second compound 0.1 µM, first compound 0.1 µM
[7] = second compound 0.1 µM, first compound 0.316 µM
[8] = second compound 0.1 µM, first compound 1 µM
[9] = second compound 0.316 µM, first compound 0.0316 µM
[10] = second compound 0.316 µM, first compound 0.1 µM
[11] = second compound 0.316 µM, first compound 0.316 µM
[12] = second compound 0.316 µM, first compound 1 µM
[13] = second compound 1 µM, first compound 0.0316 µM
[14] = second compound 1 µM, first compound 0.1 µM
[15] = second compound 1 µM, first compound 0.316 µM
[16] = second compound 1 µM, first compound 1 µM
[17] = second compound 3.16 µM, first compound 0.0316 µM
[18] = second compound 3.16 µM, first compound 0.1 µM
[19] = second compound 3.16 µM, first compound 0.316 µM
[20] = second compound 3.16 µM, first compound 1 µM
[21] = second compound 10 µM, first compound 0.0316 µM
[22] = second compound 10 µM, first compound 0.1 µM
[23] = second compound 10 µM, first compound 0.316 µM
[24] = second compound 10 µM, first compound 1 µM
[25] = second compound 0.0316 µM, first compound 3.16 µM
[26] = second compound 0.0316 µM, first compound 10 µM
[27] = second compound 0.1 µM, first compound 3.16 µM
[28] = second compound 0.1 µM, first compound 10 µM
[29] = second compound 0.316 µM, first compound 3.16 µM
[30] = second compound 0.316 µM, first compound 10 µM
[31] = second compound 1 µM, first compound 3.16 µM
[32] = second compound 1 µM, first compound 10 µM
[33] = second compound 3.16 µM, first compound 3.16 µM
[34] = second compound 3.16 µM, first compound 10 µM
[35] = second compound 10 µM, first compound 3.16 µM
[36] = second compound 10 µM, first compound 10 µM
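Also: spheroids exposed to the drug combinations for seven days.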
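For viability, T/C in this document: percent viability relative to DMSO vehicle control wells taken as 100%.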

COc1c(OCCCN2CCOCC2)ccc2c3n(c(=NC(=O)c4cnc(N)nc4)nc12)CCN3 + CNC(=O)c1ccc(Nc2nc(OC3CCCC3)c3c(-c4ccc5nc(C)oc5c4)c[nH]c3n2)c(OC)c1
inactive: viability, T/C (second compound 0.0316 µM, first compound 0.00316 µM) 90% | viability, T/C (second compound 0.0316 µM, first compound 0.01 µM) 91% | viability, T/C [1] 81.6% | viability, T/C [2] 65.3% | viability, T/C [3] 33.2% | viability, T/C (second compound 0.1 µM, first compound 0.00316 µM) 70.5% | viability, T/C (second compound 0.1 µM, first compound 0.01 µM) 85.4% | viability, T/C [5] 73.2% | viability, T/C [6] 53.4% | viability, T/C [7] 16.1% | viability, T/C (second compound 0.316 µM, first compound 0.00316 µM) 75.3% | viability, T/C (second compound 0.316 µM, first compound 0.01 µM) 81.8% | viability, T/C [9] 68.8% | viability, T/C [10] 45.7% | viability, T/C [11] 22.6% | viability, T/C (second compound 1 µM, first compound 0.00316 µM) 73.5% | viability, T/C (second compound 1 µM, first compound 0.01 µM) 59.4% | viability, T/C [13] 49% | viability, T/C [14] 31.6% | viability, T/C [15] 23% | viability, T/C (second compound 3.16 µM, first compound 0.00316 µM) 62.9% | viability, T/C (second compound 3.16 µM, first compound 0.01 µM) 68.1% | viability, T/C [17] 50% | viability, T/C [18] 38.8% | viability, T/C [19] 15.3% | viability, T/C (second compound 10 µM, first compound 0.00316 µM) 75.1% | viability, T/C (second compound 10 µM, first compound 0.01 µM) 65.9% | viability, T/C [21] 45.5% | viability, T/C [22] 31% | viability, T/C [23] 10.5%
7.38: pIC50 (second compound 3.16 µM)
7.05: pIC50 (second compound 0.316 µM)
6.95: pIC50 (second compound 0.1 µM)
7.59: pIC50 (second compound 1 µM)
7.57: pIC50 (second compound 10 µM)
active: viability, T/C [4] 5.74% | viability, T/C [8] 3.37% | viability, T/C [12] 3.62% | viability, T/C [16] 3.52% | viability, T/C [20] 2.16% | viability, T/C [24] 2.07%
6.76: pIC50 (second compound 0.0316 µM)

COC1C=CCC(C)C(C)S(=O)(=O)NC(=O)c2ccc3c(c2)N(CC2CCC21)CC1(CCCc2cc(Cl)ccc21)CO3 (stereo unspecified) + CNC(=O)c1ccc(Nc2nc(OC3CCCC3)c3c(-c4ccc5nc(C)oc5c4)c[nH]c3n2)c(OC)c1
active: viability, T/C [12] 9.42% | viability, T/C [29] 8.88% | viability, T/C [30] 9.03% | viability, T/C [31] 9.03% | viability, T/C [32] 6.79% | viability, T/C [33] 7% | viability, T/C [34] 7.88% | viability, T/C [24] 11.5% | viability, T/C [35] 7.72% | viability, T/C [36] 5.45%
6.87: pIC50 (second compound 0.1 µM) | pIC50 (second compound 0.316 µM)
7.23: pIC50 (second compound 3.16 µM)
5.34: pIC50 (second compound 0.0316 µM)
inactive: viability, T/C [1] 90.8% | viability, T/C [2] 93.5% | viability, T/C [3] 92.5% | viability, T/C [4] 82.2% | viability, T/C [25] 71.2% | viability, T/C [26] 9.78% | viability, T/C [5] 83.2% | viability, T/C [6] 57.4% | viability, T/C [7] 29.4% | viability, T/C [8] 19% | viability, T/C [27] 33.8% | viability, T/C [28] 11.7% | viability, T/C [9] 79% | viability, T/C [10] 61% | viability, T/C [11] 19% | viability, T/C [13] 81.2% | viability, T/C [14] 51.6% | viability, T/C [15] 29.8% | viability, T/C [16] 10.1% | viability, T/C [17] 69.2% | viability, T/C [18] 33.6% | viability, T/C [19] 19.7% | viability, T/C [20] 12.3% | viability, T/C [21] 60.6% | viability, T/C [22] 59.5% | viability, T/C [23] 17.5%
6.95: pIC50 (second compound 1 µM)
6.89: pIC50 (second compound 10 µM)

O=c1[nH]cc(F)c(=O)[nH]1 + CN1CCN(c2cc(C(=O)Nc3cc4cc(-c5cnn(C)c5)ccc4cn3)ccn2)CC1
6.02: pIC50 (second compound 0.1 µM)
inactive: viability, T/C [1] 93% | viability, T/C [2] 104% | viability, T/C [3] 90.8% | viability, T/C [4] 43.5% | viability, T/C [25] 28.6% | viability, T/C [26] 31.4% | viability, T/C [5] 99.8% | viability, T/C [6] 100% | viability, T/C [7] 96.8% | viability, T/C [8] 48% | viability, T/C [27] 28.8% | viability, T/C [28] 30.4% | viability, T/C [9] 96.3% | viability, T/C [10] 98.5% | viability, T/C [11] 96.5% | viability, T/C [12] 42% | viability, T/C [29] 24.6% | viability, T/C [30] 19.7%
> 7.50: pIC50 (second compound 1 µM) | pIC50 (second compound 3.16 µM) | pIC50 (second compound 10 µM)
6.07: pIC50 (second compound 0.0316 µM) | pIC50 (second compound 0.316 µM)
active: viability, T/C [13] 1.35% | viability, T/C [14] 1.2% | viability, T/C [15] 0.92% | viability, T/C [16] 2.1% | viability, T/C [31] 0.59% | viability, T/C [32] 0.84% | viability, T/C [17] 0.5% | viability, T/C [18] 0.58% | viability, T/C [19] 1.18% | viability, T/C [20] 0.66% | viability, T/C [33] 0.53% | viability, T/C [34] 0.54% | viability, T/C [21] 0.37% | viability, T/C [22] 0.5% | viability, T/C [23] 1.31% | viability, T/C [24] 0.42% | viability, T/C [35] 0.41% | viability, T/C [36] 0.45%
